Source: patent publication US6673549B1, “Genes expressed in C3A liver cell cultures treated with steroids” (Incyte Corporation, priority 2000, dated 2004)

Test system: human C3A liver cells
Assay: Microarray differential gene expression in human C3A liver cell cultures treated with steroids
Type: cell-based
Description: Incyte clones represent template sequences derived from the LWESEQ GOLD assembled human sequence database (Incyte Genomics). In cases where more than one clone was available for a particular template, the 5′-most clone in the template was used on the microarray. The HUMAN GENOME GEM series 1-4 microarrays (Incyte Genomics) contain 28,626 array elements which represent 10,068 annotated clusters and 18,558 unannotated clusters. For the UNIGEM series microarrays (Incyte Genomics), Incyte clones were mapped to non-redundant Unigene clusters (Unigene database (build 46), NCBI; Shuler (1997) J Mol Med 75:694-698), and the 5′ clone with the strongest BLAST alignment (at least 90% identity and 100 bp overlap) was chosen, verified, and used in the construction of the microarray. The UNIGEM V microarray (Incyte Genomics) contains 7075 array elements which represent 4610 annotated genes and 2,184 unannotated clusters.
To construct microarrays, cDNAs were amplified from bacterial cells using primers complementary to vector sequences flanking the cDNA insert. […] Amplified cDNAs were then purified using […]-400 columns (APB). Purified cDNAs were immobilized on polymer-coated glass slides. Glass microscope slides (Corning, Corning N.Y.) were cleaned by ultrasound in 0.1% SDS and acetone, with extensive distilled water washes between and after treatments. Glass slides were etched in 4% hydrofluoric acid (VWR Scientific Products, West Chester Pa.), washed thoroughly in distilled water, and coated with 0.05% aminopropyl silane (Sigma Aldrich) in 95% ethanol. Coated slides were cured in a 110° C. oven. cDNAs were applied to the coated glass substrate using a procedure described in U.S. Pat. No. 5,807,522. One microliter of the cDNA at an average concentration of 100 ng/μl was loaded into the open capillary printing element by a high-speed robotic apparatus which then deposited about 5 nl of cDNA per slide.
Microarrays were UV-crosslinked using a […] UV-crosslinker (Stratagene), and then washed at room temperature once in 0.2% SDS and three times in distilled water. Non-specific binding sites were blocked by incubation of microarrays in 0.2% casein in phosphate buffered saline (Tropix, Bedford Mich.) for 30 minutes at 60° C. followed by washes in 0.2% SDS and distilled water as before.
In all cases, mRNA from untreated early confluent C3A cells were prepared in parallel as described below.
Cells were harvested and lysed in 1 ml of TRIZOL reagent (5×10^6 cells/ml; Life Technologies). Lysates were vortexed thoroughly, incubated at room temperature for 2-3 minutes, and extracted with 0.5 ml chloroform. The extract was mixed, incubated at room temperature for 5 minutes, and centrifuged at 15,000 rpm for 15 minutes at 4° C. The aqueous layer was collected, and an equal volume of isopropanol was added. Samples were mixed, incubated at room temperature for 10 minutes, and centrifuged at 15,000 rpm for 20 minutes at 4° C. The supernatant was removed, and the RNA pellet was washed with 1 ml of 70% ethanol, centrifuged at 15,000 rpm at 4° C., and resuspended in RNAse-free water. The concentration of the RNA was determined by measuring the optical density at 260 nm.
Poly(A) RNA was prepared using an OLIGOTEX mRNA kit (Qiagen) with the following modifications: OLIGOTEX beads were washed in tubes instead of on spin columns, resuspended in elution buffer, and then loaded onto spin columns to recover mRNA. To obtain maximum yield, the mRNA was eluted twice.
Each poly(A) RNA sample was reverse transcribed using MMLV reverse-transcriptase, 0.05 pg/μl oligo-d(T) primer (21mer), 1× first strand buffer, 0.03 units/ul RNAse inhibitor, 500 uM dATP, 500 uM dGTP, 500 uM dTTP, 40 uM dCTP, and 40 uM either dCTP-Cy3 or dCTP-Cy5 (APB).

With `CC#C[C@]1(O)CC[C@H]2[C@@H]3CCC4=CC(=O)CCC4=C3[C@@H](c3ccc(N(C)C)cc3)C[C@@]21C` [Mifepristone] the “Ave DE [log2] (C3A treated with steroid)” value (Clone ID 4543123) was −1.20 log2 and the “Ave DE [log2] (C3A treated with steroid)” value (Clone ID 5426158) was −0.93 log2.
In the case of `C[C@H]1C[C@H]2[C@@H]3CCC4=CC(=O)C=C[C@]4(C)[C@@]3(Cl)[C@@H](O)C[C@]2(C)[C@@]1(O)C(=O)CO` [beclomethasane], the “Ave DE [log2] (C3A treated with steroid)” value (Clone ID 5398701) is reported as 0.82 log2.
`C[C@H]1C[C@H]2[C@@H]3CCC4=CC(=O)C=C[C@]4(C)[C@@]3(F)[C@@H](O)C[C@]2(C)[C@@]1(O)C(=O)CO` [betamethasone] was tested, and the “Ave DE [log2] (C3A treated with steroid)” value (Clone ID 220378) was 0.57 log2, the “Ave DE [log2] (C3A treated with steroid)” value (Clone ID 615776) was 1.11 log2 and the “Ave DE [log2] (C3A treated with steroid)” value (Clone ID 619447) was 0.33 log2. For the same compound, the “Ave DE [log2] (C3A treated with steroid)” value (Clone ID 686993) was 0.51 log2, the “Ave DE [log2] (C3A treated with steroid)” value (Clone ID 689296) was 1.12 log2 and the “Ave DE [log2] (C3A treated with steroid)” value (Clone ID 1323327) was 1.00 log2. For the same compound, the “Ave DE [log2] (C3A treated with steroid)” value (Clone ID 1329625) was 0.91 log2, the “Ave DE [log2] (C3A treated with steroid)” value (Clone ID 1496011) was 0.60 log2 and the “Ave DE [log2] (C3A treated with steroid)” value (Clone ID 1501410) was −0.98 log2. The “Ave DE [log2] (C3A treated with steroid)” value (Clone ID 1600180) was 0.77 log2, the “Ave DE [log2] (C3A treated with steroid)” value (Clone ID 1798594) was 1.37 log2 and the “Ave DE [log2] (C3A treated with steroid)” value (Clone ID 1816768) was 0.24 log2. The “Ave DE [log2] (C3A treated with steroid)” value (Clone ID 1824860) was 0.70 log2, the “Ave DE [log2] (C3A treated with steroid)” value (Clone ID 1857044) was 0.89 log2 and the “Ave DE [log2] (C3A treated with steroid)” value (Clone ID 1951845) was 1.02 log2. For the same compound, the “Ave DE [log2] (C3A treated with steroid)” value (Clone ID 2025128) was 1.20 log2, the “Ave DE [log2] (C3A treated with steroid)” value (Clone ID 2046717) was 0.83 log2 and the “Ave DE [log2] (C3A treated with steroid)” value (Clone ID 2078880) was −0.75 log2. The “Ave DE [log2] (C3A treated with steroid)” value (Clone ID 2170820) was 1.30 log2, the “Ave DE [log2] (C3A treated with steroid)” value (Clone ID 2173002) was 0.98 log2 and the “Ave DE [log2] (C3A treated with steroid)” value (Clone ID 2173973) was 0.81 log2. For the same compound, the “Ave DE [log2] (C3A treated with steroid)” value (Clone ID 2189061) was 0.23 log2, the “Ave DE [log2] (C3A treated with steroid)” value (Clone ID 2222155) was 0.50 log2 and the “Ave DE [log2] (C3A treated with steroid)” value (Clone ID 2343836) was 0.63 log2. The “Ave DE [log2] (C3A treated with steroid)” value (Clone ID 2404746) was 1.46 log2, the “Ave DE [log2] (C3A treated with steroid)” value (Clone ID 2407620) was 0.02 log2 and the “Ave DE [log2] (C3A treated with steroid)” value (Clone ID 2430165) was 0.68 log2. The “Ave DE [log2] (C3A treated with steroid)” value (Clone ID 2482388) was 1.14 log2, the “Ave DE [log2] (C3A treated with steroid)” value (Clone ID 2660756) was 1.26 log2 and the “Ave DE [log2] (C3A treated with steroid)” value (Clone ID 2687356) was 1.23 log2. For the same compound, the “Ave DE [log2] (C3A treated with steroid)” value (Clone ID 2695371) was 0.95 log2, the “Ave DE [log2] (C3A treated with steroid)” value (Clone ID 2703282) was −0.85 log2 and the “Ave DE [log2] (C3A treated with steroid)” value (Clone ID 2734007) was 1.04 log2. For the same compound, the “Ave DE [log2] (C3A treated with steroid)” value (Clone ID 2753065) was 0.75 log2, the “Ave DE [log2] (C3A treated with steroid)” value (Clone ID 3229449) was 1.05 log2 and the “Ave DE [log2] (C3A treated with steroid)” value (Clone ID 3474091) was 0.23 log2. The “Ave DE [log2] (C3A treated with steroid)” value (Clone ID 3528232) was 0.80 log2, the “Ave DE [log2] (C3A treated with steroid)” value (Clone ID 3729593) was 0.55 log2 and the “Ave DE [log2] (C3A treated with steroid)” value (Clone ID 3876612) was 0.19 log2. For the same compound, the “Ave DE [log2] (C3A treated with steroid)” value (Clone ID 3973687) was 1.47 log2, the “Ave DE [log2] (C3A treated with steroid)” value (Clone ID 4087621) was 1.09 log2 and the “Ave DE [log2] (C3A treated with steroid)” value (Clone ID 4215034) was 1.50 log2. For the same compound, the “Ave DE [log2] (C3A treated with steroid)” value (Clone ID 4403805) was 1.19 log2, the “Ave DE [log2] (C3A treated with steroid)” value (Clone ID 4855265) was 1.24 log2 and the “Ave DE [log2] (C3A treated with steroid)” value (Clone ID 5206821) was 0.50 log2. For the same compound, the “Ave DE [log2] (C3A treated with steroid)” value (Clone ID 5398701) was 1.10 log2, the “Ave DE [log2] (C3A treated with steroid)” value (Clone ID 5521873) was 0.77 log2 and the “Ave DE [log2] (C3A treated with steroid)” value (Clone ID 5543385) was 1.15 log2.
